{"source": "patent US12156533B2", "about": "“Nicotine salt formulations for aerosol devices and methods thereof” (JUUL Labs, Inc., priority 2013, dated 2024)", "settings": "nicotine:tartaric acid 1:2 molar ratio; in PG, VG or any mixture of PG and VG at ambient conditions", "text": "As used herein, weight percentage (w/w) refers to the weight of the individual component over the weight of the total formulation."}
{"compound": "CN1CCCC1c1cccnc1.O=C(O)C(O)C(O)C(=O)O", "note": "(stereo not shown) [nicotine bitartrate]", "values": [{"measurement": "concentration at which no solution is produced", "value": "≥ 0.5 % (w/w) nicotine"}]}
